Measurements: patent US10294202B2, “Pyrrolidinones as herbicides” (FMC Corporation, priority 2013, dated 2019)

Key:
[1] = test system: barnyardgrass; assay: Test C flooded paddy test; assay type: in vivo, Echinochloa crus-galli; conditions: Flood
How it was run: (§1)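 Visual ratings from 0, no effect, to 100, complete control, were made against untreated controls after 13–15 greenhouse days. Compounds had gone straight into paddy water 3 cm above the soil, kept at that depth, on 2-leaf-stage plants.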

[2] = test system: velvetleaf; assay: Test A pre-/postemergence herbicide test; assay type: in vivo, Abutilon theophrasti
How it was run: (§2)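 Seeds sown in loam soil/sand blend received a preemergence directed soil spray of test chemical in non-phytotoxic solvent with surfactant; postemergence plants (2–10 cm, one- to two-leaf stage) were sprayed with the same formulation. After about 10 days in greenhouse, injury was rated visually versus untreated controls, 0 (no effect) to 100 (complete control).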

[3] = test system: sedge, umbrella; assay: Test C flooded paddy test; assay type: in vivo, Cyperus difformis; conditions: Flood
How it was run: as §1

[4] = test system: giant foxtail; assay: Test A pre-/postemergence herbicide test; assay type: in vivo, Setaria faberii
How it was run: as §2

[5] = test system: morningglory; assay: Test A pre-/postemergence herbicide test; assay type: in vivo, Ipomoea spp.
How it was run: as §2

[6] = test system: corn; assay: Test A pre-/postemergence herbicide test; assay type: in vivo, Zea mays
How it was run: as §2

[7] = test system: sedge, umbrella; assay: Test B flooded paddy test; assay type: in vivo, Cyperus difformis; conditions: Flood, scale of 0 to 100 where 0 is no effect and 100 is complete control
How it was run: (§3)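 In-water application to pots flooded 3 cm deep, plants at 2-leaf stage. Held in greenhouse 13–15 days at constant flood depth. Scored 0–100 by eye against controls.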

[8] = test system: wheat; assay: Test A pre-/postemergence herbicide test; assay type: in vivo, Triticum aestivum
How it was run: as §2

[9] = test system: ducksalad; assay: Test B flooded paddy test; assay type: in vivo, Heteranthera limosa; conditions: Flood, scale of 0 to 100 where 0 is no effect and 100 is complete control
How it was run: as §3

[10] = test system: crabgrass, large; assay: Test A pre-/postemergence herbicide test; assay type: in vivo, Digitaria sanguinalis
How it was run: as §2

[11] = test system: rice; assay: Test B flooded paddy test; assay type: in vivo, Oryza sativa; conditions: Flood, scale of 0 to 100 where 0 is no effect and 100 is complete control
How it was run: as §3

[12] = test system: ducksalad; assay: Test C flooded paddy test; assay type: in vivo, Heteranthera limosa; conditions: Flood
How it was run: as §1

[13] = test system: pigweed; assay: Test A pre-/postemergence herbicide test; assay type: in vivo, Amaranthus retroflexus
How it was run: as §2

[14] = test system: rice; assay: Test C flooded paddy test; assay type: in vivo, Oryza sativa; conditions: Flood
How it was run: as §1

[15] = test system: barnyardgrass; assay: Test A pre-/postemergence herbicide test; assay type: in vivo, Echinochloa crus-galli
How it was run: as §2

[16] = test system: barnyardgrass; assay: Test B flooded paddy test; assay type: in vivo, Echinochloa crus-galli; conditions: Flood, scale of 0 to 100 where 0 is no effect and 100 is complete control
How it was run: as §3

[17] = test system: watergrass, late; assay: Test F flood (paddy) test; assay type: in vivo, Echinochloa oryzicola; conditions: 21 d, scale 0-100
From the text: (§4) Three plastic pots (ca. 16-cm diameter) per rate were partially filled with sterilized Tama silt loam soil comprising a 35:50:15 ratio of sand, silt and clay and 2.6% organic matter. Separate plantings for each of the three pots were as follows. Seeds from the U.S. of monochoria (Monochoria vaginalis), sedge, umbrella (small-flower umbrella sedge, Cyperus difformis), bulrush, […] bulrush, Scirpus juncoides), and […] (purple […] coccinea), were planted into one 16-cm pot for each rate. Seeds from the U.S. of flatsedge, rice (rice flatsedge, Cyperus iria), sprangletop, Brdd. (bearded sprangletop, Leptochloa fascicularis), one stand of 9 or 10 water seeded rice seedlings (Rice, W.S. Jap, Oryza sativa cv. 'Japonica-[…]' or Rice, W.S. Ind, 'Indica'), and two stands of 3 or 4 seedlings of rice, transplanted (transplanted rice, Oryza sativa cv. 'Japonica-[…]') were planted into one 16-cm pot for each rate. Seeds from the U.S. of barnyardgrass (Echinochloa crus-galli), […] (common […], Alisma plantago-aquatica), and watergrass, late (late watergrass, Echinochloa oryzicola) were planted into one 16-cm pot for each rate. Plantings were sequential so that crop and weed species were at the 2.0 to 2.5-leaf stage at time of treatment. Potted plants were grown in a greenhouse with day/night temperature settings of 30/27° C., and supplemental balanced lighting was provided to maintain a 16-h photoperiod. Test pots were maintained in the greenhouse until test completion. At time of treatment, test pots were flooded to 3 cm above the soil surface, treated by application of test compounds directly to the paddy water, and then maintained at that water depth for the duration of the test. Effects of treatments on rice and weeds were visually evaluated by comparison to untreated controls after 21 d. Plant response ratings, summarized in Table F, are based on a scale of 0 to 100 where 0 is no effect and 100 is complete control. A dash (-) response means no test result.

[18] = test system: Rice, W.S. Ind; assay: Test F flood (paddy) test; assay type: in vivo, Oryza sativa Indica; conditions: 21 d, scale 0-100
From the text: as §4

[19] = test system: sprangletop, Brdd.; assay: Test F flood (paddy) test; assay type: in vivo, Leptochloa fascicularis; conditions: 21 d, scale 0-100
From the text: as §4

[20] = test system: monochoria; assay: Test F flood (paddy) test; assay type: in vivo, Monochoria vaginalis; conditions: 21 d, scale 0-100
From the text: as §4

[21] = test system: barnyardgrass; assay: Test F flood (paddy) test; assay type: in vivo, Echinochloa crus-galli; conditions: 21 d, scale 0-100
From the text: as §4

[22] = test system: rice, transplanted; assay: Test F flood (paddy) test; assay type: in vivo, Oryza sativa cv. Japonica—M202; conditions: 21 d, scale 0-100
From the text: as §4

[23] = 125 g ai/ha, scale of 0 to 100 where 0 is no effect and 100 is complete control, 13 to 15 days
[24] = Postemergence, 125 g ai/ha, 0 to 100 scale, 0 no effect, 100 complete control
[25] = Postemergence, 500 g ai/ha, 0 to 100 scale (0 no effect, 100 complete control)
[26] = Preemergence, 125 g ai/ha, visual rating on 0 to 100 scale (0 no effect, 100 complete control)
[27] = preemergence, 500 g ai/ha, 0 to 100 scale
[28] = Postemergence, 1000 g ai/ha, 0 to 100 scale (0 no effect, 100 complete control)
[29] = Preemergence, 1000 g ai/ha, visual rating on 0 to 100 scale (0 no effect, 100 complete control), approx. 10 days

In the case of `O=C1NCC(c2cccc(Cl)c2)C1C(=O)Nc1ccccc1F` (racemic) [Compound 89], the “Plant response rating, Barnyardgrass” value [1, 23] is reported as 20, the “Plant response rating, Barnyardgrass” value ([1]; 250 g ai/ha, scale 0 to 100) is reported as 20 and the “Plant response rating, Barnyardgrass” value ([1]; 500 g ai/ha, scale 0 to 100) is reported as 40. The “Plant response rating, Barnyardgrass” value ([1]; 1000 g ai/ha, scale 0 to 100) was 75, the “Plant response rating, Velvetleaf” value [2, 24] was 0 and the “Plant response rating, Velvetleaf” value [2, 25] was 0. The “Velvetleaf plant response rating” value [2, 26] was 0, the “Plant response rating, Velvetleaf” value [2, 27] was 0 and the “Plant response rating, Sedge, Umbrella” value [3, 23] was 0. The “Plant response rating, Sedge, Umbrella” value ([3]; 250 g ai/ha, scale 0 to 100) was 0, the “Plant response rating, Sedge, Umbrella” value ([3]; 500 g ai/ha, scale 0 to 100) was 0 and the “Plant response rating, Sedge, Umbrella” value ([3]; 1000 g ai/ha, scale 0 to 100) was 0. For the same compound, the “Plant response rating, Foxtail, Giant” value [4, 24] was 60, the “Plant response rating, Foxtail, Giant” value [4, 25] was 80 and the “Foxtail, Giant plant response rating” value [4, 26] was 80. For the same compound, the “Plant response rating, Foxtail, Giant” value [4, 27] was 90, the “Plant response rating, Morningglory” value [5, 24] was 0 and the “Plant response rating, Morningglory” value [5, 25] was 10. The “Morningglory plant response rating” value [5, 26] was 0, the “Plant response rating, Morningglory” value [5, 27] was 0 and the “Plant response rating, Corn” value [6, 24] was 0. For the same compound, the “Plant response rating, Corn” value [6, 25] was 30, the “Corn plant response rating” value [6, 26] was 0 and the “Plant response rating, Corn” value [6, 27] was 0. The “Plant response rating, Sedge, Umbrella” value ([7]; 250 g ai/ha) was 0, the “Plant response rating, Wheat” value [8, 24] was 0 and the “Plant response rating, Wheat” value [8, 25] was 20. The “Wheat plant response rating” value [8, 26] was 0, the “Plant response rating, Wheat” value [8, 27] was 10 and the “Plant response rating, Ducksalad” value ([9]; 250 g ai/ha) was 70. For the same compound, the “Plant response rating, Crabgrass, Large” value [10, 24] was 60, the “Plant response rating, Crabgrass, Large” value [10, 25] was 80 and the “Crabgrass, Large plant response rating” value [10, 26] was 80. For the same compound, the “Plant response rating, Crabgrass, Large” value [10, 27] was 90, the “Plant response rating, Rice” value ([11]; 250 g ai/ha) was 20 and the “Plant response rating, Ducksalad” value [12, 23] was 70. The “Plant response rating, Ducksalad” value ([12]; 250 g ai/ha, scale 0 to 100) was 85, the “Plant response rating, Ducksalad” value ([12]; 500 g ai/ha, scale 0 to 100) was 100 and the “Plant response rating, Ducksalad” value ([12]; 1000 g ai/ha, scale 0 to 100) was 100. For the same compound, the “Plant response rating, Pigweed” value [13, 24] was 0, the “Plant response rating, Pigweed” value [13, 25] was 20 and the “Pigweed plant response rating” value [13, 26] was 0. For the same compound, the “Plant response rating, Pigweed” value [13, 27] was 0, the “Plant response rating, Rice” value [14, 23] was 0 and the “Plant response rating, Rice” value ([14]; 250 g ai/ha, scale 0 to 100) was 0. The “Plant response rating, Rice” value ([14]; 500 g ai/ha, scale 0 to 100) was 0, the “Plant response rating, Rice” value ([14]; 1000 g ai/ha, scale 0 to 100) was 0 and the “Plant response rating, Barnyardgrass” value [15, 24] was 60. The “Plant response rating, Barnyardgrass” value [15, 25] was 80, the “Barnyardgrass plant response rating” value [15, 26] was 60 and the “Plant response rating, Barnyardgrass” value ([15]; preemergence, 500 g ai/ha, 0 to 100 scale (0 no effect, 100 complete control)) was 80. For the same compound, the “Plant response rating, Barnyardgrass” value ([16]; 250 g ai/ha) was 60.
For `O=C1NCC(c2ccc(F)c(F)c2)C1C(=O)Nc1ccccc1Cl` (racemic) [Compound 99], the “Plant response rating, Watergrass, Late” value ([17]; 125 g ai/ha) was 30, the “Plant response rating, Watergrass, Late” value ([17]; 250 g ai/ha) was 40 and the “Plant response rating, Watergrass, Late” value ([17]; 500 g ai/ha) was 50. For the same compound, the “Plant response rating, Rice, W.S. Ind” value ([18]; 125 g ai/ha) was 0, the “Plant response rating, Rice, W.S. Ind” value ([18]; 250 g ai/ha) was 0 and the “Plant response rating, Rice, W.S. Ind” value ([18]; 500 g ai/ha) was 0. For the same compound, the “Plant response rating, Velvetleaf” value [2, 28] was 10, the “Plant response rating, Velvetleaf” value [2, 29] was 0 and the “Plant response rating, Foxtail, Giant” value [4, 28] was 90. For the same compound, the “Plant response rating, Foxtail, Giant” value [4, 29] was 90, the “Plant response rating, Morningglory” value [5, 28] was 10 and the “Plant response rating, Morningglory” value [5, 29] was 0. The “Plant response rating, Sprangletop, Brdd.” value ([19]; 125 g ai/ha) was 0, the “Plant response rating, Sprangletop, Brdd.” value ([19]; 250 g ai/ha) was 75 and the “Plant response rating, Sprangletop, Brdd.” value ([19]; 500 g ai/ha) was 85. The “Plant response rating, Corn” value [6, 28] was 20, the “Plant response rating, Corn” value [6, 29] was 20 and the “Plant response rating, Monochoria” value ([20]; 125 g ai/ha) was 50. The “Plant response rating, Monochoria” value ([20]; 250 g ai/ha) was 85, the “Plant response rating, Monochoria” value ([20]; 500 g ai/ha) was 95 and the “Plant response rating, Sedge, Umbrella” value ([7]; 1000 g ai/ha) was 0. The “Plant response rating, Wheat” value [8, 28] was 20, the “Plant response rating, Wheat” value [8, 29] was 20 and the “Plant response rating, Ducksalad” value ([9]; 1000 g ai/ha) was 95. For the same compound, the “Plant response rating, Crabgrass, Large” value [10, 28] was 90, the “Plant response rating, Crabgrass, Large” value [10, 29] was 90 and the “Plant response rating, Rice” value ([11]; 1000 g ai/ha) was 10. For the same compound, the “Plant response rating, Pigweed” value [13, 28] was 0, the “Plant response rating, Pigweed” value [13, 29] was 0 and the “Plant response rating, Barnyardgrass” value ([21]; 125 g ai/ha) was 25. For the same compound, the “Plant response rating, Barnyardgrass” value ([21]; 250 g ai/ha) was 50, the “Plant response rating, Barnyardgrass” value ([21]; 500 g ai/ha) was 80 and the “Plant response rating, Barnyardgrass” value [15, 28] was 90. The “Plant response rating, Barnyardgrass” value [15, 29] was 90, the “Plant response rating, Barnyardgrass” value ([16]; 1000 g ai/ha) was 80 and the “Plant response rating, Rice, Transplanted” value ([22]; 125 g ai/ha) was 0. For the same compound, the “Plant response rating, Rice, Transplanted” value ([22]; 250 g ai/ha) was 0 and the “Plant response rating, Rice, Transplanted” value ([22]; 500 g ai/ha) was 0.
